Columns and labels:
CFTR = molecular target: T1, CFTR (Homo sapiens, UniProt P13569, DEL508-508); experiment: TECC24 AUC fold over DMSO @10 μM, CFTR-mediated transepithelial chloride transport in CF-HBE cells; type: cell-based; conditions: test agent AUC divided by DMSO vehicle AUC, primary CF-HBE cells, ΔF508 homozygous donor, 48 hours incubation
T1 construct: Primary human bronchial epithelial cells from a ΔF508 homozygous CF donor; host or cells: primary human bronchial epithelial cells (CF-HBE), ΔF508 homozygous donor
T1 sequence (P13569 with tags, fused parts or gaps DEL508-508): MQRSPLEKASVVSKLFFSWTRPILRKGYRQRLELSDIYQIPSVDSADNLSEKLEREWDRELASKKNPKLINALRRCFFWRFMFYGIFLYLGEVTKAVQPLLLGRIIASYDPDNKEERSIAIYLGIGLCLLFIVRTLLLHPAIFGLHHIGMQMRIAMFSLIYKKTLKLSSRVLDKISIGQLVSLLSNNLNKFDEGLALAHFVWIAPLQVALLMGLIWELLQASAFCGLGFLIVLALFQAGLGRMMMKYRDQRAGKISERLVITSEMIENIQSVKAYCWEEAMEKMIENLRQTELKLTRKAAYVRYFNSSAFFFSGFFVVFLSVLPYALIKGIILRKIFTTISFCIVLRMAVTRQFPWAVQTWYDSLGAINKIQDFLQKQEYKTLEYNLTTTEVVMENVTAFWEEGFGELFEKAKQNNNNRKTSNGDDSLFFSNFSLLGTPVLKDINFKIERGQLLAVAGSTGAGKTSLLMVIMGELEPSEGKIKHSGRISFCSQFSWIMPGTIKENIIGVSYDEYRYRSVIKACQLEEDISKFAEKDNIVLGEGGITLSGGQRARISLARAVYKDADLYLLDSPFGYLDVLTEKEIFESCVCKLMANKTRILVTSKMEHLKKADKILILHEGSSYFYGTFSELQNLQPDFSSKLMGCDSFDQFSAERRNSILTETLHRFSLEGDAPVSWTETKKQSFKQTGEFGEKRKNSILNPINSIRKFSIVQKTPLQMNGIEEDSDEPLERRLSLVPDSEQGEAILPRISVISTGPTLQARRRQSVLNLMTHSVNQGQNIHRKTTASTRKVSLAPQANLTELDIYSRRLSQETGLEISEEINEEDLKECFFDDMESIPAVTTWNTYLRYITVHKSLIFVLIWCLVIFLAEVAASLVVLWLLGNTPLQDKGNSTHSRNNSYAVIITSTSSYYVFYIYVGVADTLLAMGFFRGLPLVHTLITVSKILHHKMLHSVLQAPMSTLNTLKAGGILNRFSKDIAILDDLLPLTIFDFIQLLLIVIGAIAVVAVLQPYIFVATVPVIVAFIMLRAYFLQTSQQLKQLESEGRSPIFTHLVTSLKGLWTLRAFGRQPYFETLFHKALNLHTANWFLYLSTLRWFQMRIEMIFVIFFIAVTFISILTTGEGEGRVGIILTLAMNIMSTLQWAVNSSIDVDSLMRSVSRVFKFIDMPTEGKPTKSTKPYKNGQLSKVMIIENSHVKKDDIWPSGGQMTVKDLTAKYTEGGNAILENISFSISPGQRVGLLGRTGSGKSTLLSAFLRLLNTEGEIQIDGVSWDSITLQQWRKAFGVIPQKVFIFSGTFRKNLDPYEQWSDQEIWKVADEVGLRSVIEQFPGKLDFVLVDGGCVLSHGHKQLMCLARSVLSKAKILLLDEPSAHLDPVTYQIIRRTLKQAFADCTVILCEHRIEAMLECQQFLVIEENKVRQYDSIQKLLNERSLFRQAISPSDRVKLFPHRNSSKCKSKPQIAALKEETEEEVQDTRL
Method in brief: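 Value is ratio of test-agent to DMSO AUC of equivalent transepithelial Cl− current, integrated from forskolin (10 μM) stimulation to CFTR inhibitor-172 (20 μM) block, with benzamil 10 μM present. CF-HBE (ΔF508/ΔF508) cultures had 48 h compound exposure at 10 μM, 36.5° C before recording.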

NBD1 = molecular target: T2, NBD1 (Homo sapiens, UniProt P13569); experiment: Aggregation analysis using differential static light scattering (DSLS), thermal stability of NBD1 (ΔTagg); type: binding; conditions: ΔTagg versus DMSO control, NBD1 0.2 mg/ml
T2 construct: Purified recombinant NBD1 was produced using previously described methods; made in house
T2 sequence (P13569 423-646 limits assumed): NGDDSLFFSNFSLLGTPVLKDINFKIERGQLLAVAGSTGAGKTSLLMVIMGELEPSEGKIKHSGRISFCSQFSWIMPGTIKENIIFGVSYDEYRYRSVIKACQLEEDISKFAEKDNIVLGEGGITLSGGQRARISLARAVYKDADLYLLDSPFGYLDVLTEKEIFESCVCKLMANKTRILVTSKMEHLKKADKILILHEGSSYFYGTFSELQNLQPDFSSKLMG
Method in brief: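 Purified recombinant NBD1 at 0.2 mg/ml in Tris buffer pH7.6 with 2 mM ATP, 5 mM MgCl2, 2 mM DTT and 1% glycerol was mixed with DMSO-dissolved compounds under mineral oil. Plates were heated at 1° C. per minute to 70° C., light scattering imaged every 0.5° C.; Tagg from curve inflection, minus DMSO-control mean.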

SMILES	TECC (AUC, 10 μM) (CFTR)	DSLS 3D (100 μM ΔT) (NBD1)
CC(CCc1cccc(C2(C)CCCC(C)(C)CS(=O)(=O)CCc3c(c(F)cc4[nH]ccc34)Oc3ccc(F)c(c3)-c3nc2nn3C)c1)C(=O)O (stereo not shown) [Compound 160, 4-[3-(22,28-Difluoro-3,6,10,10-tetramethyl-12,12-dioxo-24-oxa-12λ6-thia-3,4,19,30-tetrazapentacyclo[23.3.1.12,5.015,23.016,20]triaconta-1(29),2(30),4,15,17,20,22,25,27-nonaen-6-yl)phenyl]-2-methyl-butanoic Acid]	A (a TECC value less than 12 is marked “A”)	C (a value greater than 10 °C and less than or equal to 25 °C is marked “C”)
C[C@@H](Cc1cccc(C2CCCC(C)(C)CS(=O)(=O)CCc3c(c(F)cc4[nH]ccc34)C(=O)c3cccc(c3)-c3ccn2n3)c1)C(=O)O (stereo partly drawn) [Compound 163, (2S)-3-[3-(22-Fluoro-10,10-dimethyl-12,12,24-trioxo-12λ6-thia-5,19,30-triazapentacyclo[23.3.1.12,5.015,23.016,20]triaconta-1(29),2(30),3,15,17,20,22,25,27-nonaen-6-yl)phenyl]-2-methyl-propanoic Acid]	A (a TECC value less than 12 is marked “A”)	A (an ΔTagg value less than or equal to 5 °C is marked “A”)
C[C@H](Cc1cccc(C2CCCC(C)(C)CS(=O)(=O)CCc3c(c(F)cc4[nH]ccc34)C(=O)c3cccc(c3)-c3ccn2n3)c1)C(=O)O (stereo partly drawn) [Compound 164, (2R)-3-[3-(22-Fluoro-10,10-dimethyl-12,12,24-trioxo-12λ6-thia-5,19,30-triazapentacyclo[23.3.1.12,5.015,23.016,20]triaconta-1(29),2(30),3,15,17,20,22,25,27-nonaen-6-yl)phenyl]-2-methyl-propanoic acid]	A (a TECC value less than 12 is marked “A”)	A (an ΔTagg value less than or equal to 5 °C is marked “A”)
Cn1nc2nc1-c1cc(ccc1F)Oc1c(F)cc3[nH]ccc3c1CCS(=O)(=O)CC(C)(C)CCCC2(C)c1cccc(CC(C(=O)O)C(F)(F)F)c1 (stereo not shown) [Compound 168, 2-[[3-(22,28-Difluoro-3,6,10,10-tetramethyl-12,12-dioxo-24-oxa-12λ6-thia-3,4,19,30-tetrazapentacyclo[23.3.1.12,5.015,23.016,20]triaconta-1(29),2(30),4,15,17,20,22,25,27-nonaen-6-yl)phenyl]methyl]-3,3,3-trifluoro-propanoic acid]	B (a value between 12-20 is marked “B”)	C (a value greater than 10 °C and less than or equal to 25 °C is marked “C”)
Cc1cn2nc1-c1cccc(c1)C(=O)c1c(F)cc3[nH]ccc3c1CCS(=O)(=O)CC(C)(C)CCCC2c1cccc(C[C@H](C)C(=O)O)c1 (stereo partly drawn) [Compound 170, (2S)-3-[3-(22-Fluoro-3,10,10-trimethyl-12,12,24-trioxo-12λ6-thia-5,19,30-triazapentacyclo[23.3.1.12,5.015,23.016,20]triaconta-1(29),2(30),3,15,17,20,22,25,27-nonaen-6-yl)phenyl]-2-methyl-propanoic Acid]	A (a TECC value less than 12 is marked “A”)	A (an ΔTagg value less than or equal to 5 °C is marked “A”)
Cn1nc2nc1-c1cc(ccc1F)Oc1c(F)cc3[nH]ccc3c1CCS(=O)(=O)CC(C)(C)CCCC2(C)c1cccc(/C=C2\CCOC2=O)c1 (stereo not shown) [Compound 172, (3E)-3-[[3-(22,28-Difluoro-3,6,10,10-tetramethyl-12,12-dioxo-24-oxa-12λ6-thia-3,4,19,30-tetrazapentacyclo[23.3.1.12,5.015,23.016,20]triaconta-1(29),2(30),4,15,17,20,22,25,27-nonaen-6-yl)phenyl]methylene]tetrahydrofuran-2-one]	A (a TECC value less than 12 is marked “A”)	B (a value above 5 °C and less than or equal to 10 °C is marked “B”)
Cn1nc2nc1-c1cc(ccc1F)Oc1c(F)cc3[nH]ccc3c1CCS(=O)(=O)CC(C)(C)CCCC2(C)c1cccc(CC2CCOC2=O)c1 (stereo not shown) [Compound 173, 3-[[3-(22,28-Difluoro-3,6,10,10-tetramethyl-12,12-dioxo-24-oxa-12λ6-thia-3,4,19,30-tetrazapentacyclo[23.3.1.12,5.015,23.016,20]triaconta-1(29),2(30),4,15,17,20,22,25,27-nonaen-6-yl)phenyl]methyl]tetrahydrofuran-2-one]	C (a value between 20 and 80 is marked “C”)	B (a value above 5 °C and less than or equal to 10 °C is marked “B”)
Cn1nc2nc1-c1cc(ccc1F)Oc1c(F)cc3[nH]ccc3c1CCS(=O)(=O)CC(C)(C)CCCC2(C)c1cccc(CC2NC(=O)NC2=O)c1 (stereo not shown) [Compound 175, 5-[[3-(22,28-Difluoro-3,6,10,10-tetramethyl-12,12-dioxo-24-oxa-12λ6-thia-3,4,19,30-tetrazapentacyclo[23.3.1.12,5.015,23.016,20]triaconta-1(29),2(30),4,15,17,20,22,25,27-nonaen-6-yl)phenyl]methyl]imidazolidine-2,4-dione]	A (a TECC value less than 12 is marked “A”)	C (a value greater than 10 °C and less than or equal to 25 °C is marked “C”)
Cn1nc2nc1-c1cc(ccc1F)Oc1c(F)cc3[nH]ccc3c1CCS(=O)(=O)CC(C)(C)CCCC2(C)c1cccc(C(O)C2NC(=O)NC2=O)c1 (stereo not shown) [Compound 176, 5-[[3-(22,28-Difluoro-3,6,10,10-tetramethyl-12,12-dioxo-24-oxa-12λ6-thia-3,4,19,30-tetrazapentacyclo[23.3.1.12,5.015,23.016,20]triaconta-1(29),2(30),4,15,17,20,22,25,27-nonaen-6-yl)phenyl]-hydroxy-methyl]imidazolidine-2,4-dione]	B (a value between 12-20 is marked “B”)	C (a value greater than 10 °C and less than or equal to 25 °C is marked “C”)
CCOC(=O)CC(O)c1cccc(C2(C)CCCC(C)(C)CS(=O)(=O)CCc3c(c(F)cc4[nH]ccc34)Oc3ccc(F)c(c3)-c3nc2nn3C)c1 (stereo not shown) [Compound 177, Ethyl 3-[3-(22,28-difluoro-3,6,10,10-tetramethyl-12,12-dioxo-24-oxa-12λ6-thia-3,4,19,30-tetrazapentacyclo[23.3.1.12,5.015,23.016,20]-triaconta-1(29),2(30),4,15,17,20,22,25,27-nonaen-6-yl)phenyl]-3-hydroxy-propanoate]	C (a value between 20 and 80 is marked “C”)	B (a value above 5 °C and less than or equal to 10 °C is marked “B”)
Cn1nc2nc1-c1cc(ccc1F)Oc1c(F)cc3[nH]ccc3c1CCS(=O)(=O)CC(C)(C)CCCC2(C)c1cccc(C(O)CC(=O)O)c1 (stereo not shown) [Compound 178, 3-[3-(22,28-Difluoro-3,6,10,10-tetramethyl-12,12-dioxo-24-oxa-12λ6-thia-3,4,19,30-tetrazapentacyclo[23.3.1.12,5.015,23.016,20]triaconta-1(29),2(30),4,15,17,20,22,25,27-nonaen-6-yl)phenyl]-3-hydroxy-propanoic Acid]	C (a value between 20 and 80 is marked “C”)	C (a value greater than 10 °C and less than or equal to 25 °C is marked “C”)
C[C@H](Cc1cccc([C@@]2(C)CCCC(C)(C)CS(=O)(=O)CCc3c(ccc4[nH]ccc34)Oc3ccc(F)c(c3)-c3nc2nn3C)c1)C(=O)O [Compound 190, (2R)-3-[3-[(6R)-28-fluoro-3,6,10,10-tetramethyl-12,12-dioxo-24-oxa-12λ6-thia-3,4,19,30-tetrazapentacyclo[23.3.1.12,5.015,23.016,20]triaconta-1(29),2(30),4,15,17,20,22,25,27-nonaen-6-yl]phenyl]-2-methyl-propanoic Acid]	B (a value between 12-20 is marked “B”)	C (a value greater than 10 °C and less than or equal to 25 °C is marked “C”)
C[C@@H](Cc1cccc([C@@]2(C)CCCC(C)(C)CS(=O)(=O)CCc3c(c(F)cc4[nH]ccc34)Oc3ccc(F)c(c3)-c3csc2n3)c1)C(=O)O [Compound 191, (2S)-3-[3-[(6R)-22,28-Difluoro-6,10,10-trimethyl-12,12-dioxo-24-oxa-4,12λ6-dithia-19,30-diazapentacyclo[23.3.1.12,5.015,23.016,20]triaconta-1(29),2,5(30),15,17,20,22,25,27-nonaen-6-yl]phenyl]-2-methyl-propanoic Acid]	B (a value between 12-20 is marked “B”)	C (a value greater than 10 °C and less than or equal to 25 °C is marked “C”)
C[C@@H](Cc1cccc([C@@]2(C)CCCC(C)(C)CS(=O)(=O)CCc3c(c(F)cc4[nH]ccc34)Oc3ccc(F)c(c3)-c3coc2n3)c1)C(=O)O [Compound 192, (2S)-3-[3-[(6R)-22,28-difluoro-6,10,10-trimethyl-12,12-dioxo-4,24-dioxa-12λ6-thia-19,30-diazapentacyclo[23.3.1.12,5.015,23.016,20]triaconta-1(29),2,5(30),15,17,20,22,25,27-nonaen-6-yl]phenyl]-2-methyl-propanoic Acid]	C (a value between 20 and 80 is marked “C”)	C (a value greater than 10 °C and less than or equal to 25 °C is marked “C”)
